Experimental data from patent publication US20230085307A1, “PYRIDAZINONE COMPOUND AND HERBICIDE” (NISSAN CHEMICAL CORPORATION, priority 2019, published 2023).

Experiments:
Italian ryegrass [1] = assay: Test Example 5: herbicidal effect by foliage application, plastic box (Table 20, symbol K); type: in vivo, Italian ryegrass (Lolium multiflorum); conditions: foliage application; for effect on Italian ryegrass (K): 320 g/ha, 3 weeks after application
Outline: (§1)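 Post-emergence foliar test in sterilized diluvial soil. Compound applied as water-diluted emulsion at a predetermined rate to 14-day-old plants; evaluation at three weeks.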

lambsquarters [2] = assay: Test Example 5: herbicidal effect by foliage application, plastic box (Table 20, symbol O); type: in vivo, lambsquarters (Chenopodium album); conditions: foliage application; for effect on lambsquarters (O): 320 g/ha, 3 weeks after application
Outline: as §1

rice flat sedge = assay: Test Example 3: herbicidal effect by foliage application, Wagner pot (Table 18, symbol E); type: in vivo, rice flat sedge (Cyperus iria); conditions: for herbicidal effect on E (rice flat sedge), rating 0-5: 320 g/ha
Outline: (§2)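 Plants were sown in alluvial soil held under 0.1–0.5 cm standing water and grown 14 days in a greenhouse at 25–30 °C. An emulsifiable formulation, water-diluted to the set dose, was then sprayed onto the foliage, and effects were scored three weeks later using previously defined criteria.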

Italian ryegrass [3] = assay: Test Example 4: herbicidal effect by soil treatment (Table 19, symbol K); type: in vivo, Italian ryegrass (Lolium multiflorum); conditions: for K: Italian ryegrass, herbicidal effect rating: AAH 320 g/ha
Outline: (§3)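 Scoring uses the grading scale of an earlier test, three weeks post-application. Treatment consists of spraying a diluted emulsion formulation across the surface of sterilized diluvial soil in which seeds are buried near 1.5 cm deep; boxes are kept in a greenhouse between 25° C. and 30° C.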

wild oat [4] = assay: Test Example 5: herbicidal effect by foliage application, plastic box (Table 20, symbol I); type: in vivo, wild oat (Avena fatua); conditions: foliage application; for effect on wild oat (I): 320 g/ha, 3 weeks after application
Outline: as §1

wild oat [5] = assay: Test Example 4: herbicidal effect by soil treatment (Table 19, symbol I); type: in vivo, wild oat (Avena fatua); conditions: for I: wild oat, herbicidal effect rating: AAH 320 g/ha
Outline: as §3

late watergrass [6] = assay: Test Example 2: herbicidal activity, application during weed generation under submerged conditions (Table 17, symbol A); type: in vivo, late watergrass (Echinochloa oryzicola); conditions: AAH 320 g/ha; application during weed generation, submerged conditions
Outline: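 Mixed weed seedlings in alluvial soil under a 4 cm water layer, greenhouse-grown at 25–30° C. Compound given as a diluted emulsion into the floodwater at the 1–2 leaf stage; response graded after three weeks.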

barnyard grass = assay: Test Example 5: herbicidal effect by foliage application, plastic box (Table 20, symbol H); type: in vivo, barnyard grass (Echinochloa crus-galli); conditions: foliage application; for effect on barnyard grass (H): 320 g/ha, 3 weeks after application
Outline: as §1

southern crabgrass = assay: Test Example 4: herbicidal effect by soil treatment (Table 19, symbol F); type: in vivo, southern crabgrass (Digitaria ciliaris); conditions: for F: southern crabgrass, herbicidal effect rating: AAH 320 g/ha
Outline: as §3

windgrass = assay: Test Example 4: herbicidal effect by soil treatment (Table 19, symbol L); type: in vivo, windgrass (Apera spica-venti); conditions: AAH 320 g/ha
Outline: as §3

chickweed [7] = assay: Test Example 4: herbicidal effect by soil treatment (Table 19, symbol P); type: in vivo, common chickweed (Stellaria media); conditions: for P: chickweed, herbicidal effect rating: AAH 320 g/ha
Outline: as §3

late watergrass [8] = assay: Test Example 1: herbicidal activity, application before weed generation under submerged conditions (Table 16, symbol A); type: in vivo, late watergrass (Echinochloa oryzicola); conditions: 320 g/ha applied herbicide
Outline: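 Alluvial soil was flooded to 4 cm depth, weed seeds were sown mixed and 2.5-leaf rice seedlings were transplanted. On sowing day, the compound's emulsion, diluted in water to a set dose, was applied to the water surface. Plants grew at 25–30 °C and were scored 0–5 after three weeks.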

Chinese sprangletop = assay: Test Example 3: herbicidal effect by foliage application, Wagner pot (Table 18, symbol D); type: in vivo, chinese sprangletop (Leptochloa chinensis); conditions: for herbicidal effect on D (Chinese sprangletop), rating 0-5: 320 g/ha
Outline: as §2

lambsquarters [9] = assay: Test Example 4: herbicidal effect by soil treatment (Table 19, symbol O); type: in vivo, lambsquarters (Chenopodium album); conditions: for O: lambsquarters, herbicidal effect rating: AAH 320 g/ha
Outline: as §3

chickweed [10] = assay: Test Example 5: herbicidal effect by foliage application, plastic box (Table 20, symbol P); type: in vivo, common chickweed (Stellaria media); conditions: foliage application, AAH 320 g/ha, evaluated three weeks after application
Outline: as §1

redroot pigweed = assay: Test Example 5: herbicidal effect by foliage application, plastic box (Table 20, symbol N); type: in vivo, redroot pigweed (Amaranthus retroflexus); conditions: foliage application, AAH 320 g/ha, evaluated three weeks after application
Outline: as §1

[11] = AAH 320 g/ha, evaluated three weeks after application
[12] = amount of applied herbicide 320 g/ha

| SMILES | effect on Italian ryegrass (K) (Italian ryegrass [1]) | effect on lambsquarters (O) (lambsquarters [2]) | herbicidal effect on E (rice flat sedge), rating 0-5 (rice flat sedge) | K: Italian ryegrass, herbicidal effect rating (Italian ryegrass [3]) | effect on wild oat (I) (wild oat [4]) | I: wild oat, herbicidal effect rating (wild oat [5]) | herbicidal effect rating, A: late watergrass (late watergrass [6]) | effect on barnyard grass (H) (barnyard grass) | F: southern crabgrass, herbicidal effect rating (southern crabgrass) | L: windgrass, herbicidal effect rating (windgrass) | P: chickweed, herbicidal effect rating (chickweed [7]) | Herbicidal effect on A: late watergrass (grade 0-5) (late watergrass [8]) | herbicidal effect on D (Chinese sprangletop), rating 0-5 (Chinese sprangletop) | O: lambsquarters, herbicidal effect rating (lambsquarters [9]) | other results |
| --- | --- | --- | --- | --- | --- | --- | --- | --- | --- | --- | --- | --- | --- | --- | --- |
| Cc1nn(C)c(=O)c(-c2c(-c3ccc(OCC(F)F)cc3)sc3ccccc23)c1O [1-203] | 5 (Herbicidal rate of 90% or more (almost completely withered)) | 5 (Herbicidal rate of 90% or more (almost completely withered)) | 5 (Herbicidal rate of 90% or more (almost completely withered)) | 5 (Herbicidal rate of 90% or more (almost completely withered)) | 0 (Herbicidal rate of 5% or less (almost no effect)) | 1 (Herbicidal rate of 5% or more and less than 20%) | 4 (Herbicidal rate of 70% or more and less than 90%) | 5 (Herbicidal rate of 90% or more (almost completely withered)) | 4 (Herbicidal rate of 70% or more and less than 90%) | 0 (Herbicidal rate of 5% or less (almost no effect)) | 5 (Herbicidal rate of 90% or more (almost completely withered)) | 5 (Herbicidal rate of 90% or more (almost completely withered)) | 4 (Herbicidal rate of 70% or more and less than 90%) | 5 (Herbicidal rate of 90% or more (almost completely withered)) |  |
| COCCOCOc1c(C)nn(C)c(=O)c1-c1c(-c2ccc(OCCSC)cc2)sc2ccccc12 [1-221] | 5 (Herbicidal rate of 90% or more (almost completely withered)) | 5 (Herbicidal rate of 90% or more (almost completely withered)) | 5 (Herbicidal rate of 90% or more (almost completely withered)) | 5 (Herbicidal rate of 90% or more (almost completely withered)) | 5 (Herbicidal rate of 90% or more (almost completely withered)) | 0 (Herbicidal rate of 5% or less (almost no effect)) | 5 (Herbicidal rate of 90% or more (almost completely withered)) | 5 (Herbicidal rate of 90% or more (almost completely withered)) | 2 (Herbicidal rate of 20% or more and less than 40%) | 0 (Herbicidal rate of 5% or less (almost no effect)) | 4 (Herbicidal rate of 70% or more and less than 90%) | 5 (Herbicidal rate of 90% or more (almost completely withered)) | 5 (Herbicidal rate of 90% or more (almost completely withered)) | 4 (Herbicidal rate of 70% or more and less than 90%) |  |
| COCCOCOc1c(C)nn(C)c(=O)c1-c1c(-c2ccc(OCCC3OCCO3)cc2)sc2ccccc12 [1-224] | 0 (Herbicidal rate of 5% or less (almost no effect)) | 4 (Herbicidal rate of 70% or more and less than 90%) | 5 (Herbicidal rate of 90% or more (almost completely withered)) | 0 (Herbicidal rate of 5% or less (almost no effect)) | 0 (Herbicidal rate of 5% or less (almost no effect)) | 0 (Herbicidal rate of 5% or less (almost no effect)) | 3 (Herbicidal rate of 40% or more and less than 70%) | 5 (Herbicidal rate of 90% or more (almost completely withered)) | 2 (Herbicidal rate of 20% or more and less than 40%) | 0 (Herbicidal rate of 5% or less (almost no effect)) | 0 (Herbicidal rate of 5% or less (almost no effect)) | 5 (Herbicidal rate of 90% or more (almost completely withered)) | 3 (Herbicidal rate of 40% or more and less than 70%) | 3 (Herbicidal rate of 40% or more and less than 70%) |  |
| C#CCSCc1ccc(-c2sc3ccccc3c2-c2c(O)c(C)nn(C)c2=O)cc1 [1-247] | 4 (Herbicidal rate of 70% or more and less than 90%) | 5 (Herbicidal rate of 90% or more (almost completely withered)) | 4 (Herbicidal rate of 70% or more and less than 90%) | 3 (Herbicidal rate of 40% or more and less than 70%) | 1 (Herbicidal rate of 5% or more and less than 20%) | 0 (Herbicidal rate of 5% or less (almost no effect)) | 3 (Herbicidal rate of 40% or more and less than 70%) | 4 (Herbicidal rate of 70% or more and less than 90%) | 0 (Herbicidal rate of 5% or less (almost no effect)) | 0 (Herbicidal rate of 5% or less (almost no effect)) | 4 (Herbicidal rate of 70% or more and less than 90%) | 2 (Herbicidal rate of 20% or more and less than 40%) | 1 (Herbicidal rate of 5% or more and less than 20%) | 3 (Herbicidal rate of 40% or more and less than 70%) |  |
| Cc1nn(C)c(=O)c(-c2c(-c3ccc(F)cc3)sc3ccc(F)cc23)c1O [2-001] | 5 (Herbicidal rate of 90% or more (almost completely withered)) | 5 (Herbicidal rate of 90% or more (almost completely withered)) | 5 (Herbicidal rate of 90% or more (almost completely withered)) | 4 (Herbicidal rate of 70% or more and less than 90%) | 5 (Herbicidal rate of 90% or more (almost completely withered)) | 3 (Herbicidal rate of 40% or more and less than 70%) | 1 (Herbicidal rate of 5% or more and less than 20%) | 5 (Herbicidal rate of 90% or more (almost completely withered)) | 5 (Herbicidal rate of 90% or more (almost completely withered)) | 0 (Herbicidal rate of 5% or less (almost no effect)) | 4 (Herbicidal rate of 70% or more and less than 90%) | 2 (Herbicidal rate of 20% or more and less than 40%) | 5 (Herbicidal rate of 90% or more (almost completely withered)) | 5 (Herbicidal rate of 90% or more (almost completely withered)) |  |
| COCCOC(=O)Oc1c(C)nn(C)c(=O)c1-c1c(-c2ccc(OC(F)F)cc2)sc2ccc(F)cc12 [2-295] |  |  |  |  |  |  | 5 (Herbicidal rate of 90% or more (almost completely withered)) |  |  |  |  | 4 (Herbicidal rate of 70% or more and less than 90%) |  |  | K: Italian ryegrass, herbicidal effect (criteria 0-5) (Italian ryegrass [1]; [11]): 5 (Herbicidal rate of 90% or more (almost completely withered)); O: lambsquarters, herbicidal effect (criteria 0-5) (lambsquarters [2]; [11]): 5 (Herbicidal rate of 90% or more (almost completely withered)); herbicidal effect on E: rice flat sedge (rice flat sedge; [12]): 5 (Herbicidal rate of 90% or more (almost completely withered)); herbicidal effect on K: Italian ryegrass (Italian ryegrass [3]; [12]): 5 (Herbicidal rate of 90% or more (almost completely withered)); I: wild oat, herbicidal effect (criteria 0-5) (wild oat [4]; [11]): 3 (Herbicidal rate of 40% or more and less than 70%); herbicidal effect on I: wild oat (wild oat [5]; [12]): 1 (Herbicidal rate of 5% or more and less than 20%); H: barnyard grass, herbicidal effect (criteria 0-5) (barnyard grass; [11]): 5 (Herbicidal rate of 90% or more (almost completely withered)); P: chickweed, herbicidal effect (criteria 0-5) (chickweed [10]): 5 (Herbicidal rate of 90% or more (almost completely withered)); N: redroot pigweed, herbicidal effect (criteria 0-5) (redroot pigweed): 5 (Herbicidal rate of 90% or more (almost completely withered)); herbicidal effect on F: southern crabgrass (southern crabgrass; [12]): 5 (Herbicidal rate of 90% or more (almost completely withered)); herbicidal effect on P: chickweed (chickweed [7]; [12]): 4 (Herbicidal rate of 70% or more and less than 90%); herbicidal effect on D: Chinese sprangletop (Chinese sprangletop; [12]): 4 (Herbicidal rate of 70% or more and less than 90%); herbicidal effect on O: lambsquarters (lambsquarters [9]; [12]): 5 (Herbicidal rate of 90% or more (almost completely withered)) |
